One data set can be described thus: Water solubility. The format is physicochemical. The conditions noted are these: suitable pH for i.v. administration (e.g. pH 4 to 10). On the procedure: The sample was sonicated for a period of up to 20 minutes. If a solution was not obtained, further solvent was added and the process was repeated until a clear solution was obtained, and the results were recorded. Solutions used were 50 mM potassium biphthalate (pH 4); 100 mM glycine (pH 9); 25 mM sodium carbonate and 25 mM sodium bicarbonate (pH 10); or deionized water (DI).

A further data set concerns Rats (formalin paw). The experiment in a line: Formalin paw assay. Particulars: rat, oral 90 min prior, 10.3-30 min post-formalin, vs vehicle. The format is in vivo. On the procedure: In this assay, injection of formalin, an irritant, into the hindpaw of rats typically evokes a biphasic response of pain-related behaviors. Phase 1 of the response which is brief, lasting approximately 0-5 min post-injection,is followed by a more prolonged phase 2, lasting approximately 10-80 min post-injection. Phase 1 behavior is thought to be a direct effect of the irritant on nociceptors at the injection site while phase 2 behavior is thought to include a hyperalgesic component mediated by sensitization of neuronal elements within the spinal cord. Studies from other laboratories have found the first portion of Phase 2 (sometimes referred to as Phase 2a) to be most responsive to pharmacological manipulation.
Rats (male, Simonsen) weighing between 100-200 g, are used in the present experiments. For screening purposes drugs are administered orally 90 min prior to initiation of formalin test. At designated intervals the animals in groups of 4 are placed individually in a small animal restrainer with the right hindpaw accessible through a hole in the bottom of the restrainer. The formalin paw assay is initiated by the injection using a 30G needle of 50 ul of a 5% formalin solution in saline into the right plantar surface of each hindpaw. […]
Scores are continuously recorded directly onto an Excel spreadsheet.

Data set [1] concerns male SA rats (maximal electroshock seizures). The experiment in a line: Anticonvulsant activity, maximal electroshock seizures (MES). The format is in vivo. Particulars: rat, po, fasted; >> = no activity at the stated dose. How it is done: The anticonvulsant activity of the tested compounds was evaluated in male SA rats (100-150g, Simonsen) using the maximal electroshock (MES) model described in Swinyard et al., Antiepileptic Drugs, 3d Ed. at 85-102 (Levy, et al., eds.), NY: Raven Press (1989). The rats were maintained on a 12/12 light/dark cycle in temperature controlled facilities with free access to food and water. For p.o. administration, the animals are fasted overnight, prior to the experiment. One to two hours prior to seizure testing, the animals were injected interperitoneally (ip) or orally (per os, po) with one of various doses of test compound dissolved in DMSO or PEG 400.
This endpoint was expressed as the percentage of animals in which the response was inhibited.

The target of data set [2] is partially purified pig heart adenosine kinase or recombinant human adenosine kinase. In words: AK inhibition. The format is biochemical. Particulars: 0.5 μM [U-14C] adenosine, pH 7.0, 37° C., 20 minutes. On the procedure:
Adenosine kinase activity was measured essentially as described by Yamada et al. Biochim. Biophys. Acta 660, 36-43 (1988) with a few minor modifications. Assay mixtures contained 50 mM TRIS-maleate buffer, pH 7.0, 0.1% BSA, 1 mM ATP 1 mM MgCl2, 0.5 μM [U-^14 C] adenosine (400-600 mCi/mmol) and varying duplicate concentrations of inhibitor. […] The amount of ^14 C-AMP was quantified by scintillation counting.

The subject of the next data set is Rats (carrageenan paw). In words: Anti-inflammatory activity, carrageenan paw swelling. The format is in vivo. Particulars: rat, 10 mg/kg, swelling after 3 hours. On the procedure: Carrageenan (Type λ) was suspended in sterile PBS at 1% (w/v), autoclaved for 30 minutes, and stored at room temperature. Rats were pretreated with vehicle or AK inhibitor (10 mg/kg) by oral gavage or i.p. administration and the volume of the left hind paw was measured using a water displacement plethysmometer (Stoelting Co., Wood Dale, Ill.). One hour after oral treatment or 30 minutes after i.p. treatment, the rats were briefly anesthetized, and 0.1 ml of the carrageenan solution was injected subcutaneously into the planar surface of the left hind paw. The ensuing paw swelling was measured by plethysmometry after 3 hours. The paw volume in millileters was […]. Data are presented in Table 2 as the percent inhibition of paw swelling in AK inhibitor treated animals, compared to vehicle treated control animals.

A further data set relates to mice. The experiment in a line: HPLC analysis of plasma, metabolism in mice. The format is in vivo, mouse. Particulars: oral, 10 mg/kg.

With `C[C@H]1O[C@@H](n2cc(-c3ccccc3)c3c(Nc4ccccc4)ncnc32)[C@H](O)[C@@H]1O` [5-phenyl-4-N-phenylamino-7-(5-deoxy-1-β-D-ribofuranosyl)pyrrolo[2,3-d]pyrimidine], the water solubility entry in “Water solubility” is “less than 20 μg/ml”.
For `C[C@H]1O[C@@H](n2cc(-c3ccccc3)c3c(Nc4ccc(CCN5CCOCC5)cc4)ncnc32)[C@H](O)[C@@H]1O` [Compound 3, 4-N-[4-(2-(4-morpholino)ethyl)phenyl]amino-5-phenyl-7-(5-deoxy-β-D-ribofuranosyl)pyrrolo[2,3-d]pyrimidine], the “Phase 2 composite score, percent inhibition” value in the data set on Rats (formalin paw) worked out at 31%. For the same compound, the ED50 in data set [1] was above 10 mg/kg. Further, the IC50 in data set [2] was determined as 0.002 µM. Also, the “Carrageenan Paw (% inhibition) ip” value in the data set on Rats (carrageenan paw) (ip) worked out at 19.5%. Moreover, in the data set with Rats (carrageenan paw) (oral gavage), the “Carrageenan Paw (% inhibition) po” value was 9.8%.
Consider `C[C@H]1O[C@@H](n2cc(I)c3c(NCCc4ccccn4)ncnc32)[C@H](O)[C@@H]1O` [Compound 43, 4-N-(2-(2-pyridylethyl)amino)-5-iodo-7-(5-deoxy-1-β-D-ribofuranosyl)pyrrolo[2,3-d]pyrimidine], for which the IC50 in data set [2] is 10 µM. Also, the “metabolism to a potent AK inhibitor, HPLC analysis of plasma” value in the data set on mice was “undergo metabolism in mice after oral administratio”.

(Values after patent publication US5795977A, “Water soluble adenosine kinase inhibitors” (Metabasis Therapeutics, Inc., priority 1996, dated 1998).)
